Test results taken from patent US10919929B2, “Glucocorticoid inhibitors for treatment of prostate cancer” (Sloan-Kettering Institute for Cancer Research, priority 2013, dated 2021).

Key:
GR = GR (Homo sapiens, UniProt P04150); details: patients with Cushing syndrome; cited from earlier work
[1] = tested on: LNCaP/AR xenograft tumors; test: LNCaP/AR xenograft pilot cohort, continual antiandrogen treatment until acquired resistance
[2] = tested on: AR target genes in LREX′ cells; test: Expression of AR target genes in LREX′ cell line in steroid depleted media (RT-qPCR); format: cell-based, human
Text: A. Normalized expression array signal (Illumina HT-12) of a suite of 74 AR target genes in control (n=10), 4 day (n=8), and LREX′ (n=8, right) xenograft tumors. Genes are ranked by degree of restoration of expression in resistant tissue ((Res-4 day)/(Control-4 day)). All resistant tissues were continued on anti-androgen treatment through time of harvest. B. Fractional restoration values of each of the 74 AR targets in LREX′ xenografts (n=8) or resistant tissues from the validation cohort (n=12). C. GR mRNA in resistant tissues used in B. D. Expression of AR target genes in the LREX′ cell line in steroid depleted media after 8 hours of treatment with the indicated agonists, in vitro. […] A. LnCaP/AR cells engineered to express GFP or GR were treated with indicated drugs. […] D. Control or AR siRNA knock-down in LREX′ followed by treatment with indicated drugs. […] Cells were treated in charcoal stripped media. Expression determined by RT-qPCR+/−s.e.m.
LREX′ cells were derived from a single enzalutamide resistant tumor that was harvested, disaggregated with collagenase treatment, and then maintained in RPMI supplemented with 20% FBS and 1 μM enzalutamide. Cells were initially grown on collagen-coated flasks until confluent and then were maintained on standard tissue culture dishes. CS1 were similarly derived from vehicle treated tumors and maintained in standard LNCaP/AR media. LNCaP/AR and LREX′ cells were cultured in phenol-red free RPMI with 10% charcoal-stripped FBS prior to drug treatments.

GR mRNA in LREX′ cells = GR mRNA in LREX′ cells cultured in vitro; format: cell-based, human
[3] = in vivo; cited from earlier work
[4] = list continues over r20-r28; cited from earlier work
[5] = tested on: GR protein in CS1 or LnCaP/AR cells; test: Intracellular GR flow cytometry of CS1 and LnCaP/AR cells under enzalutamide; details: enzalutamide 1 micromolar, 4 week experiment
Experimental: (§1) Cells were re-suspended in Fixation/Permeabilization working solution (eBioscience; San Diego, Calif., USA) at a concentration of 1-2×10^6 cells/ml for 30 minutes at room temperature. The cells were subsequently stained with primary antibodies, Rabbit (DA1E) mAb IgG XP® Isotype Control, androgen receptor (D6F11) XP® Rabbit mAb, or glucocorticoid receptor (D6H2L) XP® Rabbit mAb (Cell Signaling Technology; Danvers, Mass., USA) for 20 minutes at room temperature. The cells were washed twice with Flow Cytometry Staining Buffer (eBioscience; San Diego, Calif., USA), and then stained with secondary antibody, Allophycocyanin-AffiniPure F(ab′)2 Fragment Donkey Anti-Rabbit IgG (Jackson ImmunoResearch Laboratories, Inc.; Westgrove, Pa., USA) for 20 minutes at room temperature. Following two more washes, the cells were re-suspended in Flow Cytometry Staining Buffer and analyzed by flow cytometry on a LSRII (BD Biosciences; San Jose, Calif., USA) using FlowJo software (Tree Star, Ashland, Oreg., USA). For GR staining, cells were maintained in their standard media and treated with dexamethasone for 20 minutes prior to harvest to fully expose antigen. For AR staining, cells were cultured in charcoal stripped media without added ligands for 3 days prior to harvest.

[6] = tested on: LREX′ cells transcriptome; test: Expression profiling of LREX′ cells after DHT or Dex, AR and GR signatures; format: cell-based, human; details: enzalutamide 10 micromolar
VCaP cells = test: VCaP cell viability by CellTiter-Glo; format: cell-based; details: Enz 10 micromolar, standard culture conditions
Experimental: Enz=10 micromolar, Dex=100 nM, CMP 15=1 micromolar. A. Western blot analysis of prostate cancer cell lines. B, C and D. Cell viability assessed by CellTiter-Glo (Promega) assay and normalized to day 1 value after indicated treatments+/−s.e.m. E. Confirmation of GR knock-down by western blot after infection with GR targeting shRNA. F. Apoptosis as assessed by cPARP western blot after 3 days of indicated treatment. G. A suite of AR targets relevant to VCaP was defined (see methods) and normalized expression of each gene after 24 hours of indicated drug treatments is depicted by heat map and ranked by degree of induction with Dex. H. Expression of the top two genes from B. (KLK2 and FKBP5) after 24 hours of indicated treatments+/−s.e.m.
VCaP: Cells were plated in triplicate and then assayed in triplicate at the time points indicated using CellTiter-Glo (Promega). Viability is plotted normalized to day 1. For knockdown studies, cells were infected and then plated 3 days later for the experiment without prior drug selection. LnCaP/AR and sub-lines: Equivalent numbers of cells were plated and then harvested and counted in triplicate at indicated time points using the Beckman Coulter Vi-Cell XR. Cells were passaged at each time point and identical numbers of cells re-plated. Fold increase in cell numbers were determined for each time interval. […]

[7] = mouse, in vivo; cited from earlier work
[8] = tested on: GR protein in LREX′ cells; test: Intracellular GR flow cytometry of LREX′ cells on enzalutamide withdrawal and re-exposure; details: LREX′off cells re-exposed to enzalutamide 1 micromolar
Experimental: as §1

LnCaP/AR and sub-lines = test: In vitro growth by cell counting (Vi-cell); format: cell-based; details: 1 micromolar enzalutamide
Experimental: . […] C. […] AUC=area under curve. […] .
VCaP: Cells were plated in triplicate and then assayed in triplicate at the time points indicated using CellTiter-Glo (Promega). Viability is plotted normalized to day 1. For knockdown studies, cells were infected and then plated 3 days later for the experiment without prior drug selection. LnCaP/AR and sub-lines: Equivalent numbers of cells were plated and then harvested and counted in triplicate at indicated time points using the Beckman Coulter Vi-Cell XR. Cells were passaged at each time point and identical numbers of cells re-plated. Fold increase in cell numbers were determined for each time interval.

PSA = test: Maximal PSA decline in patients receiving enzalutamide; format: in vivo; details: enzalutamide 160 mg daily
Experimental: Patients were treated with enzalutamide 160 mg daily. Bone marrow biopsy and aspirate (˜5 mL) were performed before treatment and at week 8. The bone marrow specimens were obtained by transiliac biopsy, and samples were processed according to standard MD Anderson Cancer Center decalcification and fixation procedures. After pathologic evaluation, samples were stored in the MD Anderson Cancer Center Prostate Cancer Tissue Bank. Imaging studies were performed at the time of suspected prostate cancer progression or at the treating physician's discretion, but generally not prior to 12 weeks post-treatment initiation. […] Retrospective analysis for GR was performed by IHC on […] formalin-fixed, paraffin-embedded bone marrow biopsy sections with anti-GR at a dilution of 1:200 (BD Transduction Laboratories #611227). A Dako autostainer and standard 3,3-diaminobenzidine were used. GR expression was assessed in a blinded fashion by two pathologists scoring at least 100 tumor cells per specimen. […]
To determine whether GR expression is a feature of clinical antiandrogen resistance, GR expression was evaluated in bone metastases from patients receiving enzalutamide. […] Using a GR IHC assay optimized for use in bone marrow samples, the percentage of GR-positive tumor cells was quantified and the data was dichotomized based on clinical response. […]

[9] = tested on: AR target gene expression; test: AR target gene expression with GR antagonists; format: cell-based
[10] = harvest after progression on continued treatment
[11] = steroid depleted media, 8 hours

Chain of GR (P04150 whole entry): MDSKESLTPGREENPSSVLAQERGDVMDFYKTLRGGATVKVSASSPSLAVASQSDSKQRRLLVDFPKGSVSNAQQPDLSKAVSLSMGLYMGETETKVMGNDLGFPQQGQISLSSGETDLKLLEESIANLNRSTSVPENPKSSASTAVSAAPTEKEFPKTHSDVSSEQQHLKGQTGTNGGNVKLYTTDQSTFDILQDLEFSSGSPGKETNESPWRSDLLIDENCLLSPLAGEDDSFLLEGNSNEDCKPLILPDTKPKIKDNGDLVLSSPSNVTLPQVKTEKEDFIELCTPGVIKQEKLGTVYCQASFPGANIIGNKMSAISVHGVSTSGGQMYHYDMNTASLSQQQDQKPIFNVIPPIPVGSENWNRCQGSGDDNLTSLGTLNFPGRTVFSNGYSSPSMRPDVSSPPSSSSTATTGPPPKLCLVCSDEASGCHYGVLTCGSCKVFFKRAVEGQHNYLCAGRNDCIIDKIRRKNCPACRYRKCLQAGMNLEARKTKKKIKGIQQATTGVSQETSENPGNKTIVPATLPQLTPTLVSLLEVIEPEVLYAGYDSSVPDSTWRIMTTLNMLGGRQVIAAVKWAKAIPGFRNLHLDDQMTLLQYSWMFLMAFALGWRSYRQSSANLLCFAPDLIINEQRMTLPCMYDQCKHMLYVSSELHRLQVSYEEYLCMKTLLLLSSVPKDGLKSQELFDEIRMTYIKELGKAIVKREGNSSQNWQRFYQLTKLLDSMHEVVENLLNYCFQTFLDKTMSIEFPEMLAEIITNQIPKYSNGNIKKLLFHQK

CC#C[C@]1(O)CC[C@H]2[C@@H]3CCC4=CC(=O)CCC4=C3[C@@H](c3ccc(N(C)C)cc3)C[C@@]21C [RU486, RU-486]
risk-benefit profile of GR inhibition in humans (GR): acceptable risk-benefit profile

CNC(=O)c1ccc(N2C(=S)N(c3ccc(C#N)c(C(F)(F)F)c3)C(=O)C23CCC3)cc1F [RD162]
% Regression: D 28 Mean ([1]; LNCaP/AR xenografts in castrate mice, 10 mg/kg oral, day 28): 80%
Day of Harvest: Mean [1, 10]: D173
Mean Tumor Volume (mm^3) at harvest [1, 10]: 554 mm^3

C[C@]12CCC(=O)C[C@@H]1CC[C@@H]1[C@@H]2CC[C@]2(C)[C@@H](O)CC[C@@H]12 [DHT, dihydrotestosterone]
induction of KLK3 (PSA) [2, 11]: comparably induced
regulation of 8 genes (7 AR targets and PSA) [2, 11]: regulated
GR mRNA levels (GR mRNA in LREX′ cells; LREX′, charcoal stripped media, 8 hours DHT exposure): reduced GR mRNA levels

CC(C)C(=O)Nc1ccc([N+](=O)[O-])c(C(F)(F)F)c1 [flutamide]
Distribution: Protein-binding [3]: Distribution: Protein-binding: 90%
Excretion [3]: Urine, faeces (small amounts)
Adverse Drug Reactions [4]: Hot flushes, loss of libido, impotence,

CNC(=O)c1ccc(N2C(=S)N(c3ccc(C#N)c(C(F)(F)F)c3)C(=O)C2(C)C)cc1F [enzalutamide]
median GR expression intensity [5]: no change in median expression intensity
effect on Dex-induced gene expression (heatmap) [6]: not impacted
growth of VCaP cells (VCaP cells): inhibited growth
effect on DHT regulation of 8 AR target genes ([2]; enzalutamide 10 micromolar): blocked
effect on Dex activity ([2]; enzalutamide 10 micromolar): did not notably affect
half-life in mice [7]: prolonged half-life
doubling time of GR expression induction [8]: 6.8 days
antiproliferative effect in vitro (LnCaP/AR and sub-lines): weak antiproliferative effect
GR mRNA levels after enzalutamide withdrawal in vitro (GR mRNA in LREX′ cells; LREX′ cells, FBS media without enzalutamide, 23 days): dropped as early as 1 day after discontinuation
effect of co-treatment on DHT reduction of GR mRNA (GR mRNA in LREX′ cells; LREX′, 10 micromolar enzalutamide, 8 hours): reversed
patients with maximal PSA decline greater than 50% (PSA; good responders (benefit > 6 months)): 11 of 13
patients with maximal PSA decline greater than 50% (PSA; poor responders (discontinued < 6 months)): 1 of 14

CC#C[C@]1(O)CC[C@H]2[C@@H]3CCC4=CC(=O)CCC4=C3[C@@H](c3ccc4c(c3)OCO4)C[C@@]21C [ORG 34517]
AR target gene expression [9]: activate AR target gene expression
